From patent EP0154117B1 (dated 1985)

Tests used:
[1] = test system: alloreactive cytolytic T lymphocytes (CTL); experiment: Induction of alloreactive cytolytic T lymphocytes (CTL) in MLC, 51Cr-release microcytotoxicity assay with P815 target cells; type: cell-based, mouse; details: for minimum doses required to cause a significant effect (CTL generation in MLC): compared to control CTL generated in drug-free MLC
[2] = test system: B6 Lymphocytes; experiment: Proliferative response of mouse lymphocytes to alloantigens in mixed lymphocyte cultures (MLC); type: cell-based; details: 10-^2 and 10^-4 µg/ml; one-way, 5-day MLC
[3] = test system: B6 Mice; experiment: Immunosuppression in vivo: lymphocytes from treated mice stimulated in MLC and tested for CTL cytotoxicity; parameters: species or system mouse; details: for cytotoxicity of effector cells from treated mice: after 30 days of treatment
[4] = test system: B6 Mice; experiment: Suppressor cells in treated mice: lymphocytes of treated mice added to a conventional MLC; type: in vivo, mouse; details: 3 mg/kg; lymphocytes obtained 5 weeks later; 1-5x10^6 cells added to MLC; dose related
[5] = test system: B6 Lymphocytes; experiment: Proliferative responses of lymphocytes to Con A and LPS (3H-TdR incorporation); details: 1 to 10-^2 µg/ml

Row | SMILES | generation of CTL ([1]; 1 to 10-^4 µg/ml in MLC) | % lysis (CTL activity) ([1]; 10-^3 µg/ml added 2 days after setting up MLC, p < 0.001 vs control (% lysis = 52.0)) [%] | % lysis (CTL activity) ([1]; 10-^3 µg/ml added at the same time as initiation of MLC, control % lysis = 52.0) [%] | % lysis (CTL activity) ([1]; 10-^3 µg/ml added one day after initiation of MLC, control % lysis = 52.0) [%] | generation of CTL ([1]; 10-^4 mcg/ml) | % lysis (CTL activity) ([1]; 10-^5 mcg/mi added to MLC, p < 0.01 vs control CTL (% lysis = 45.7), 5 days) [%] | duration of the suppressive effect (suppression after removal of compound) ([1]; 10^-3 µg/ml, compound removed from 1 MLC each day by washing, CTL tested after five days) | proliferation of B6 lymphocytes stimulated by D2 lymphocytes [2] | CTL generation of lymphocytes from treated mice ([3]; 0.3 mg/kg, day 23 post treatment) | CTL generation by lymphocytes from drug-treated mice ([3]; 3 mg/kg i.p., lymphocytes prepared 2 weeks later, 5-day MLC, all E:T ratios tested) | cytotoxicity of effector cells from treated mice ([3]; 0.3 and 0.75 mg/kg) | CTL activity of lymphocytes from treated mice ([3]; 0.3 to 3.0 mg/kg, day 10 after treatment) | cytotoxicity of effector cells from treated mice ([3]; 1.5 an 3.0 mg/kg) | effect of cells from drug treated mice on CTL generation by normal lymphocytes [4] | proliferation of these cells (Con A or LPS stimulated) [5] | minimum doses required to cause a significant effect (CTL generation in MLC) [1]
1 | Cl.Cl.NCCNc1ccc(NCCN)c2c1C(=O)c1c(O)ccc(O)c1C2=O | complete failure to generate CTL | 22.0 | 2.7 | 6.4 | consistent failure to generate CTL | 37.0 | irreversible | significantly prevented | typical CTL generation was evident | failed to become effective CTL | normal level of cytotoxicity | no CTL activity | still unable to do so | significantly prevented normal lymphocytes from becoming effective CTL | completely abolished | 
2 | COc1cccc2c1C(=O)c1c(O)c3c(c(O)c1C2=O)C[C@@](O)(C(=O)CO)C[C@@H]3O[C@H]1C[C@H](N)[C@H](O)[C@H](C)O1 [Adriamycin, reference compound] |  |  |  |  |  |  |  |  |  |  |  |  |  |  |  | 10^-1 µg/ml
3 | Cl.Cl.O=C1c2c(O)ccc(O)c2C(=O)c2c(NCCNCCO)ccc(NCCNCCO)c21 [Novantrone^TM, reference compound] |  |  |  |  |  |  |  |  |  |  |  |  |  |  |  | 10^-3 µg/ml
